Measurements: patent US20150198612A1, “Isotopic Labelling of Proteins” (UNIVERSITY OF DUNDEE, priority 2012, published 2015)

Legend:
[1] = test system: drug metabolism related proteins; experiment: LC-MS/MS protein expression profile of liver from induced mice (Example 1); assay type: in vivo; conditions: wild type mice liver; once daily i.p. for 3 days; TCPOBOP 1 mg/kg; versus corn oil; FIG. 3
Method: In order to generate a drug metabolism-enhanced SILAC model, the protein expression profiles of liver from animals induced with TCPOBOP (1 mg/kg) or pregnenolone 16α-carbonitrile (PCN) or vehicle were examined. […] Animals were sacrificed 3 days after dosing, liver tissue excised and snap-frozen in liquid nitrogen for storage at −80° C.
Frozen liver tissue was thawed by addition of 10 volumes SDT lysis buffer (4% SDS, 0.1M DTT, 100 mM Tris-HCl pH 7.6) then homogenised by rotor-stator (2×5 sec at 20 k revolutions). Homogenate was heated to 95° C. for 5 minutes, sonicated (2×5 sec), then centrifuged at 16,000×g for 10 minutes. Supernatant (protein sample for analysis) was removed, aliquoted and stored at −80° C. until use. Protein samples (total of 30 μg/well) were electrophoresed through a 12% bis-tris gel in MOPS running buffer supplemented with antioxidant (all Life Technologies, Paisley, UK) alongside a Spectra multicolour broad range protein ladder (Thermo Fisher Scientific, Waltham, Mass.). Gels were stained with coomassie blue, destained, and then rehydrated with Milli-Q water. […] Peptide sample concentration was determined by Nanodrop (Thermo Fisher Scientific) and adjusted to 0.2 mg/mL in water containing 0.1% (vol/vol) trifluoroacetic acid. […] Data were analysed using SIEVE software in conjunction with Mascot database search engine. […]

Cyp3a = conditions: mouse, in vivo, ip
drug metabolism enzymes = conditions: mouse, in vivo
Cyp2B10 = experiment: SILAM LC-MS/MS quantification of Cyp2B10 in mouse liver (Example 2); conditions: for L/H ratio of Cyp2B10 peptide NLQELLDYIGHSVEK: mice treated 1 mg/kg
Method: This experiment was conducted to test the utility of the drug metabolism-enhanced reference in an actual SILAM protocol in comparison to normal SILAM protocol.
Liver protein extracts from wild type mice treated with TCPOBOP (1 mg/kg) or Ethoxyquin (1 mg/kg) or corn oil (control) were spiked with liver heavy protein extract from normal SILAM mice or drug metabolism pathway-enhanced SILAM mice according to the present invention.

Cyp4a = experiment: Western blot of liver drug metabolism enzymes, Cyp4a; conditions: C57BL/6 mice liver, once daily i.p. for 3 days, single inducer
[2] = test system: inflammation related proteins; experiment: LC-MS/MS of lung proteins after LPS treatment (Example 3); assay type: in vivo; conditions: male C57BL/6 mice, single i.p. injection 100 μg, lung 24 hours after dosing
Method: Male C57BL/6 mice were given a single intraperitoneal injection of lipopolysaccharide (LPS; 100 μg) or vehicle and tissues were harvested 24 hours after dosing. Lung tissues were lysed in 2% SDS buffer by ultrasonic probe and proteins extracted were resolved onto a SDS-PAGE, followed by a filter assisted trypsin digestion procedure. The protein digests were analysed by LC-MS/MS and the data were analysed using Peaks software for database search and Progenesis for quantification.

Molecule: CC(=O)[C@H]1[C@H](C#N)C[C@H]2[C@@H]3CC=C4C[C@@H](O)CC[C@]4(C)[C@H]3CC[C@@]21C [PCN, pregnenolone 16α-carbonitrile]
- expression of drug metabolism related proteins relative to the total ion current [1]: to a lesser extent, PCN, significantly increased the expression of many of these proteins
- Cyp3a protein expression (Cyp3a): noticeable
- change to other Cyp proteins examined (other than Cyp3a) (drug metabolism enzymes; ip): no change

Molecule: Clc1cnc(Oc2ccc(Oc3ncc(Cl)cc3Cl)cc2)c(Cl)c1 [TCPOBOP]
- Cyp2B10 expression relative to Ethoxyquin (Cyp2B10; from L/H ratios, pathway-enhanced SILAM): 4 fold
- levels of the low-abundance cytochrome protein Cyp2B10 (Cyp2B10; general statement): efficiently increase levels
- L/H ratio of Cyp2B10 peptide NLQELLDYIGHSVEK (Cyp2B10; liver extract spiked with drug metabolism pathway-enhanced SILAM heavy liver extract, control L/H=0): 2.50
- L/H ratio of Cyp2B10 peptide NLQELLDYIGHSVEK (Cyp2B10; liver extract spiked with normal SILAM heavy extract (no heavy peptide signal)): infinite
- expression of drug metabolism related proteins relative to the total ion current [1]: significantly increased the expression of many of these proteins
- expression of proteins examined (drug metabolism enzymes): enhanced significantly the expression of many proteins examined except for Cyp2e and Homx1
- Cyp4a expression (Cyp4a): moderate

Molecule: lipopolysaccharide [LPS]
- number of inflammation related proteins in the lung that can be quantified using the enhanced SILAM [2]: more than 100
- induction of the lung proteins listed in Table 4 ([2]; versus vehicle): more than 5 times
